Measurements from patent US5776720A, “Assay reagent” (priority 1995, dated 1998).
Where a name gives a salt, the structure may show the parent alone.

Key:
Format in all cases: cell-based, human
Set-up in all cases: unit not given here
Settings in all cases: normal donors
lymphocytes = test: Normal leukocyte enzyme activity (Table 3A), lymphocytes
Excerpt: (§1) The measured fluorescence intensity can be converted from mean channel fluorescence (in peak or integrated mode) to MESF (molecules of equivalent soluble fluorochrome, Flow Cytometry Standards Corp. , San Juan, Puerto Rico) or International Units of hydrolysis per cell. A normal range of enzyme activity is established by assaying males and females in sufficient quantity to characterize the population levels statistically.
(§2) A normal in house adult donor pool was drawn, recording sex and determining that no known disease state was present at the time of sample draw. Criteria for rejecting samples included patients under medication, patients with infection or inflammation of any type, colds and flu as well as any known medical illness such as cancer, heart ailment and high blood pressure. A donor list of 75 patients has been developed and a mean and 2 sd range established. A subgroup of "super normals" was developed from this list by examining the 75 patients to determine which group falls closest to the mean for all enzymes in all cell types tested. These patients were used as the "wellness index" or best group of "normalcy" patients. If a study required the use of children or newborns then this same format was used to develop a data base for these age groups.

monocytes = test: Normal leukocyte enzyme activity (Table 3A), monocytes
Excerpt: as §1, §2

granulocytes = test: Normal leukocyte enzyme activity (Table 3A), granulocytes
Excerpt: as §1, §2

| Compound | NORMAL LEUKOCYTE ENZYME ACTIVITY, LYMPHS Mean (lymphocytes) | NORMAL LEUKOCYTE ENZYME ACTIVITY, MONOS Mean (monocytes) | NORMAL LEUKOCYTE ENZYME ACTIVITY, GRANS Mean (granulocytes) |
| --- | --- | --- | --- |
| C[C@H](N)C(=O)N[C@@H](C)C(=O)Nc1ccc2c(c1)Oc1cc(NC(=O)[C@H](C)NC(=O)[C@H](C)N)ccc1C21OC(=O)c2ccccc21 [AA--TFA, (H--L--Ala--Ala)2 Rho 110.2TFA] | 56.95 | 158.31 | 154.81 |
| C[C@H](N)C(=O)Nc1ccc2c(c1)Oc1cc(NC(=O)[C@H](C)N)ccc1C21OC(=O)c2ccccc21 [ALA, (Ala)2 Rho 110] | 75.85 | 172.33 | 149.02 |
| N=C(N)NCCC[C@H](N)C(=O)Nc1ccc2c(c1)Oc1cc(NC(=O)[C@@H](N)CCCNC(=N)N)ccc1C21OC(=O)c2ccccc21 (stereo partly drawn) [ARG, (H--L--Arg)2 Rho 110.4TFA] | 1.47 | 10.34 | 5.16 |
| N[C@@H](CC(=O)O)C(=O)Nc1ccc2c(c1)Oc1cc(NC(=O)[C@@H](N)CC(=O)O)ccc1C21OC(=O)c2ccccc21 [ASP, (H--L--Asp)2 --Rho 110.2TFA] | 0.26 | 0.66 | 0.45 |
| O=C(CCl)Oc1ccc2c(c1)Oc1cc(OC(=O)CCl)ccc1C21OC(=O)c2ccccc21 [CHLOAC, FL(chloroacetate)2] | 2.49 | 7.33 | 6.48 |
| CC(=O)Oc1ccc2c(c1)Oc1cc(OC(C)=O)ccc1C21OC(=O)c2ccccc21 [DIACET 6.5, Fluorescein (acetate)2, reference compound] | 109.89 | 534.00 | 408.88 |
| CC(=O)Oc1ccc2c(c1)Oc1cc(OC(C)=O)ccc1C21OC(=O)c2ccccc21 [DIACET 7.5, Fluorescein (acetate)2, reference compound] | 89.30 | 432.78 | 348.01 |
| CCCC(=O)Oc1ccc2c(c1)Oc1cc(OC(=O)CCC)ccc1C21OC(=O)c2ccccc21 [DIBUT 6.5, FL(butyrate)2] | 4.08 | 10.37 | 6.43 |
| CCCCCCC(=O)Oc1ccc2c(c1)Oc1cc(OC(=O)CCCCCC)ccc1C21OC(=O)c2ccccc21 [DIHEP 6.5, FL(heptanoate)2] | 9.17 | 32.25 | 18.57 |
| CCCCCCC(=O)Oc1ccc2c(c1)Oc1cc(OC(=O)CCCCCC)ccc1C21OC(=O)c2ccccc21 [DIHEP 7.5, FL(heptanoate)2] | 9.73 | 36.15 | 20.41 |
| CCCCCC(=O)Oc1ccc2c(c1)Oc1cc(OC(=O)CCCCC)ccc1C21OC(=O)c2ccccc21 [DIHEX 6.5, FL(hexanoate)2] | 15.10 | 72.87 | 33.84 |
| CCCCCC(=O)Oc1ccc2c(c1)Oc1cc(OC(=O)CCCCC)ccc1C21OC(=O)c2ccccc21 [DIHEX 7.5, FL(hexanoate)2] | 7.54 | 37.22 | 17.57 |
| CCCCCCCCCCCCCCCC(=O)Oc1ccc2c(c1)Oc1cc(OC(=O)CCCCCCCCCCCCCCC)ccc1C21OC(=O)c2ccccc21 [DIPAL 6.5, FL(palmitate)2] | 0.15 | 0.30 | 0.14 |
| CCCCCCCCCCCCCCCC(=O)Oc1ccc2c(c1)Oc1cc(OC(=O)CCCCCCCCCCCCCCC)ccc1C21OC(=O)c2ccccc21 [DIPAL 7.5, FL(palmitate)2] | 0.14 | 0.30 | 0.14 |
| CCC(=O)Oc1ccc2c(c1)Oc1cc(OC(=O)CC)ccc1C21OC(=O)c2ccccc21 [DIPRO 6.5, FL(propionate)2] | 86.11 | 441.65 | 349.18 |
| CCC(=O)Oc1ccc2c(c1)Oc1cc(OC(=O)CC)ccc1C21OC(=O)c2ccccc21 [DIPRO 7.6, FL(propionate)2] | 96.34 | – | 429.17 |
| CCCCC(=O)Oc1ccc2c(c1)Oc1cc(OC(=O)CCCC)ccc1C21OC(=O)c2ccccc21 [DIVAL 6.5, FL(valerate)2] | 33.13 | 184.51 | 92.81 |
| O=C1OC2(c3ccc(OC4O[C@H](CO)[C@H](O)[C@H](O)[C@H]4O)cc3Oc3cc(OC4O[C@H](CO)[C@H](O)[C@H](O)[C@H]4O)ccc32)c2ccccc21 (stereo partly drawn) [GALAC, (D-galactose)2 fluorescein] | 0.38 | 5.94 | 1.58 |
| CC(C)C[C@H](NC(=O)CN)C(=O)Nc1ccc2c(c1)Oc1cc(NC(=O)[C@H](CC(C)C)NC(=O)CN)ccc1C21OC(=O)c2ccccc21 [GL, (H Gly--Leu)2 Rho 110.2FTA] | 9.42 | 41.78 | 29.16 |
| C[C@H](NC(=O)[C@@H](N)CCCCN)C(=O)Nc1ccc2c(c1)Oc1cc(NC(=O)[C@H](C)NC(=O)[C@@H](N)CCCCN)ccc1C21OC(=O)c2ccccc21 [KA, (Lys-Ala)2 Rho 110] | 11.47 | 39.35 | 29.15 |
| C[C@H](NC(=O)[C@@H](N)CCCCN)C(=O)Nc1ccc2c(c1)Oc1cc(NC(=O)[C@H](C)NC(=O)[C@@H](N)CCCCN)ccc1C21OC(=O)c2ccccc21 [KA--M, (Lys-Ala)2 Rho 110] | 0.55 | 8.74 | 1.74 |
| CC(C)C[C@H](NC(=O)[C@@H](N)CC(C)C)C(=O)N[C@@H](CCCNC(=N)N)C(=O)Nc1ccc2c(c1)Oc1cc(NC(=O)[C@H](CCCNC(=N)N)NC(=O)[C@H](CC(C)C)NC(=O)[C@@H](N)CC(C)C)ccc1C21OC(=O)c2ccccc21 (stereo partly shown) [LLR, (H--L Leu--Leu--Arg)2 Rho 110.4TFA] | 4.09 | 54.32 | 9.46 |
| O=C1OC2(c3ccc(NC(=O)[C@@H]4CCCN4)cc3Oc3cc(NC(=O)[C@@H]4CCCN4)ccc32)c2ccccc21 [PRO, (H--L--Pro)2 --Rho 110.2TFA] | 1.70 | 6.83 | 9.19 |
| NC(=O)CC[C@H](N)C(=O)N[C@@H](CO)C(=O)Nc1ccc2c(c1)Oc1cc(NC(=O)[C@H](CO)NC(=O)[C@@H](N)CCC(N)=O)ccc1C21OC(=O)c2ccccc21 [QS, (H--L--Gln--Ser)2 Rho 110.2TFA] | 1.70 | 10.66 | 4.67 |
| N[C@@H](CO)C(=O)Nc1ccc2c(c1)Oc1cc(NC(=O)[C@@H](N)CO)ccc1C21OC(=O)c2ccccc21 [SER, (H--L--Ser)2 Rho 110.2TFA] | 1.35 | 6.49 | 3.40 |
| CC(C)[C@H](N)C(=O)N[C@@H](CCCCN)C(=O)Nc1ccc2c(c1)Oc1cc(NC(=O)[C@H](CCCCN)NC(=O)[C@@H](N)C(C)C)ccc1C21OC(=O)c2ccccc21 [VK, (Val-Lys)2 Rho 110] | 1.87 | 20.38 | – |
| CC(C)[C@H](N)C(=O)N[C@@H](CO)C(=O)Nc1ccc2c(c1)Oc1cc(NC(=O)[C@H](CO)NC(=O)[C@@H](N)C(C)C)ccc1C21OC(=O)c2ccccc21 [VS, (H--L--Val--Ser)2 Rho 110.2TFA] | 3.81 | 19.61 | 8.27 |
